From ChEMBL document CHEMBL1148343, “Fragment-based drug discovery” (J Med Chem, 2004)

Key:
Nucleic Acid = experiment: (§1) Maximal non-effective concentration against bacterial DNA gyrase; assay type: nucleic-acid assay
[1] = biological target: Matrix metalloproteinase-9 (Homo sapiens) (UniProt P14780); experiment: Inhibition of gelatinase B, matrix metalloprotease-9 (MMP-9) at 5000 uM
[2] = biological target: DNA topoisomerase 2-beta (Homo sapiens) (UniProt Q02880); experiment: as §1
DNA topoisomerase 2-beta (Homo sapiens), sequence (Q02880 whole entry): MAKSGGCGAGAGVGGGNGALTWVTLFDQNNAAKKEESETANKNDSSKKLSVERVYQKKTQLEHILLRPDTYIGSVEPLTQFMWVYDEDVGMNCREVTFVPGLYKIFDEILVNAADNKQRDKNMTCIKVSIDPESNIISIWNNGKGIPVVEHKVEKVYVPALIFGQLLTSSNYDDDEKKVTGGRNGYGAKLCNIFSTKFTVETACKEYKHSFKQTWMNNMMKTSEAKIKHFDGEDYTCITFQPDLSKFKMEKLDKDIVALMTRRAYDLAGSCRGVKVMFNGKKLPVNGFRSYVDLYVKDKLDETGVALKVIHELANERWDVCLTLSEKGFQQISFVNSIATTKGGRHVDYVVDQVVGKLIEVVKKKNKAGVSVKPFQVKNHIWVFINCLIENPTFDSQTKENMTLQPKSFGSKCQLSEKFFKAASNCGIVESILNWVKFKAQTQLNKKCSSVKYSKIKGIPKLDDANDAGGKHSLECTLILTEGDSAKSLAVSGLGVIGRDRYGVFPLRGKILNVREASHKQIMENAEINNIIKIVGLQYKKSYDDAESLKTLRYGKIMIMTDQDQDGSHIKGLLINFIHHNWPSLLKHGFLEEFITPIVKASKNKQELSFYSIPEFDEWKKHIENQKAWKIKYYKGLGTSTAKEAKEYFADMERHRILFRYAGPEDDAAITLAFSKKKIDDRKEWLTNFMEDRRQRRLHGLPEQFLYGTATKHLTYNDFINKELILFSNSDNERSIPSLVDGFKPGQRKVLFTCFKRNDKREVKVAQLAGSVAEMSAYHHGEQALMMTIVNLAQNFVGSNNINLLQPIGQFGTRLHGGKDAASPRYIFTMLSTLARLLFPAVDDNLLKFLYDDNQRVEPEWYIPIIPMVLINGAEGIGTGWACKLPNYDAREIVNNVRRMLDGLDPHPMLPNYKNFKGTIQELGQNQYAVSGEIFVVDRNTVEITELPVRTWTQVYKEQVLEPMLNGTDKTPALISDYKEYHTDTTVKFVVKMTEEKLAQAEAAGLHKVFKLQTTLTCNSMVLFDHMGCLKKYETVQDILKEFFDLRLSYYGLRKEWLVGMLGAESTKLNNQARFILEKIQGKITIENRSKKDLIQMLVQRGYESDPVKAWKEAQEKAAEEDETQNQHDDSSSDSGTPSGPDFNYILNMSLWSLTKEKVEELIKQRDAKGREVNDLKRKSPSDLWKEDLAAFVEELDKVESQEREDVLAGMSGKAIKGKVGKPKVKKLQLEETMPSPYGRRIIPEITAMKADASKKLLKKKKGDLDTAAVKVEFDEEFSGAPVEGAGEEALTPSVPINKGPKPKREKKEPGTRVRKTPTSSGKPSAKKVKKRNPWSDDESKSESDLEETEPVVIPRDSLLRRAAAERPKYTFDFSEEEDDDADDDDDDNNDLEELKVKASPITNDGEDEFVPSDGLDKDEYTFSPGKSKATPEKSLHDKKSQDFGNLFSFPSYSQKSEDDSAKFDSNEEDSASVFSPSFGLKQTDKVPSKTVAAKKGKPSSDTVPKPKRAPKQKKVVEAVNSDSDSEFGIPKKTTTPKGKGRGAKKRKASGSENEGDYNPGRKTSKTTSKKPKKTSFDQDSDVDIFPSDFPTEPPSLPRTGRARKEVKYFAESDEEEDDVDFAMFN

Matrix metalloproteinase-9 (Homo sapiens), sequence (P14780 whole entry): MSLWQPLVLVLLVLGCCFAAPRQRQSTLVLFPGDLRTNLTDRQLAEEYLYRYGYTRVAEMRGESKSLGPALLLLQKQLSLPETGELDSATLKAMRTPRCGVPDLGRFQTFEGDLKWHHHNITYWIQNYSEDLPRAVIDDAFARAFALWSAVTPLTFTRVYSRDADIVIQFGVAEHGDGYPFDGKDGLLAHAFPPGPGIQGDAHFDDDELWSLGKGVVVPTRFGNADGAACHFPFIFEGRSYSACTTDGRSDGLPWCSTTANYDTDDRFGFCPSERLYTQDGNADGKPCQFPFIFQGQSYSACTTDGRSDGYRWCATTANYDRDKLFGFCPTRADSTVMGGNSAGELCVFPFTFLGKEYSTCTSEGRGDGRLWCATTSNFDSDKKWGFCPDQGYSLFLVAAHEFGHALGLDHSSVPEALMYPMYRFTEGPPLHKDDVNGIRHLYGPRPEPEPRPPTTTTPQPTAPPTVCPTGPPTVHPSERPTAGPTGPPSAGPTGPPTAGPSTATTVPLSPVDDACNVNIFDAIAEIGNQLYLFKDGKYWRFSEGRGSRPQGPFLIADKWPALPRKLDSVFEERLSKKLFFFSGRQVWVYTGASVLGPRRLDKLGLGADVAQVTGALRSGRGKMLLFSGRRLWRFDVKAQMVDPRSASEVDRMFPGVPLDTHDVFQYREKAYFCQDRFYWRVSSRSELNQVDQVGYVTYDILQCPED

| MNEC (Nucleic Acid) | Structure (SMILES) | other results |
| --- | --- | --- |
| 41 µM | c1ccc(-c2[nH]nc3ccccc23)cc1 |  |
| 25 µM | Cc1cc(=O)oc2cc(SCc3n[nH]c4ccccc34)ccc12 |  |
|  | NCc1nc2ccccc2[nH]1 | inhibition [1]: 65% |
|  | Cc1cc(=O)oc2cc(SCc3n[nH]c4cccc(OCc5ccc(C(C)(C)C)cc5)c34)ccc12 | MNEC [2]: 0.062 µM |
